Test results: patent publication US6875578B2, “System for cell-based screening” (priority 1997, dated 2005)

How the values were obtained:
BHK cells = assay: Apoptosis mitochondrial mass/potential, BHK cells; assay type: cell-based; settings: 30 hours
Method: (§1) Cells were plated into 96-well plates at densities of 3×10^3 to 1×10^4 cells/well. The following day apoptotic inducers were added at the indicated concentrations and cells were incubated for the indicated time periods (usually 16-30 hours). Cells were stained with 5 μg/ml Hoechst (Molecular Probes, Inc.) and 750 nM MITOTRACKER™ Red (CMXRos, Molecular Probes, Inc.) in fresh medium and incubated for 30 minutes at 37° C. Cells were washed in HBSS and fixed with 3.7% formaldehyde in HBSS at room temperature. Plates were washed with HBSS and permeabilized with 0.5% v/v TRITON™ X-100 in HBSS at room temperature. Cells were washed 2× with HBSS at room temperature and the plate was sealed. For dual labeling of mitochondria, cells were treated with 200 nM MITOTRACKER™ Green and 200 nM MITOTRACKER™ Red for 0.5 hours before fixation.
(§2) The mitochondrial membrane potential is measured by labeling mitochondria with both MITOTRACKER™ Green FM and MITOTRACKER™ Red (Molecular Probes, mc). MITOTRACKER™ Red labeling is proportional to both mass and membrane potential. MITOTRACKER™ Green FM labeling is proportional to mass. The ratio of MITOTRACKER™ Red signal to the MITOTRACKER™ Green FM signal provides a measure of mitochondrial membrane potential (Poot and Pierce, 1999). This ratio normalizes the […]. […]

L929 cells = assay: Apoptosis mitochondrial mass/potential, L929 cells; assay type: cell-based, mouse; settings: 30 hours
Method: as §1, §2

## CC(=O)O[C@H]1C(=O)[C@@]2(C)[C@H]([C@H](OC(=O)c3ccccc3)[C@]3(O)C[C@H](OC(=O)[C@H](O)[C@@H](NC(=O)c4ccccc4)c4ccccc4)C(C)=C1C3(C)C)[C@]1(OC(C)=O)CO[C@@H]1C[C@@H]2O [paclitaxel]
BHK cells
  mitochondrial changes (mass / membrane potential): consistent increases in mitochondrial mass
L929 cells
  mitochondrial changes (mass / membrane potential): consistent increases in mitochondrial mass
